Data as given in patent US11345666B2, “Phenyl and pyridinyl substituted imidazoles as modulators of RORγT” (Janssen Pharmaceutica NV, priority 2018, dated 2022).

Columns and labels:
[1] = biological target: human RORγt ligand binding domain (RORγt LBD) (Homo sapiens (Human), UniProt P51449); assay: RORγt ThermoFluor assay
Procedure, shortened: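 Thermal shift of His-tagged human RORγt LBD (0.065 mg/mL) with 60 μM 1,8-ANS in 100 mM Hepes pH 7.0, 10 mM NaCl, 2.5 mM GSH, 0.002% Tween-20, heated at 1° C./min. Compounds in 1:2 series from a 10 mM DMSO stock; KD estimated from ΔTm using protein unfolding thermodynamics.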

full-length human RORγt = full-length human RORγt (Homo sapiens (Human), UniProt P51449); assay: RORγt (full-length human) reporter assay, conditions A or B; type: cell-based; conditions: for IC50: HEK293T cells, read-out: RORγt (FL) Reporter Assay A or B, IC50; for inhibition at 6 µM: read-out: RORγt (FL) Reporter Assay A or B, % inhibition @ 6 μM, 6 μM compound concentration; for inhibition at 3 µM: 3 μM compound concentration (*); for inhibition at 3 µM / inhibition at 2 µM: read-out: RORγt (FL) Reporter Assay A or B, % inhibition; for inhibition at 2 µM: 2 μM compound concentration (**)
Chain of full-length human RORγt (P51449 other isoform, or with tags, fused parts or gaps): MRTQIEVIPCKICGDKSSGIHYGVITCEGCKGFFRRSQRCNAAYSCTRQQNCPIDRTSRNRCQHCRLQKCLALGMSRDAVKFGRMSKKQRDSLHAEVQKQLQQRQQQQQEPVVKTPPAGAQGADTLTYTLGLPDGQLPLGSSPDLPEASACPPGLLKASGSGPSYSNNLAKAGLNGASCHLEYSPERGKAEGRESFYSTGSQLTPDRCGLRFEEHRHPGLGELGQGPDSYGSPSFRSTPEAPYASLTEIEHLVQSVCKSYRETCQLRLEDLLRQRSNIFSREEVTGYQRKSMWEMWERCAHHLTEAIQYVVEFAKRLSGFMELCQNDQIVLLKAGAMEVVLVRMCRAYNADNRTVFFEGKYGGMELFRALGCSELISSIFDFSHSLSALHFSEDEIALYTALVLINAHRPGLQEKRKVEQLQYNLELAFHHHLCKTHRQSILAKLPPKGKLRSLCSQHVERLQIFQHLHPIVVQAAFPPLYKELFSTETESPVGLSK
Procedure, shortened: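 HEK293T cells transiently co-transfected (PEI) with GAL4-DBD–RORγt, GAL4-firefly luciferase and CMV-Renilla reporters; condition A 35,000 cells/well, 170.5 ng DNA/well; condition B 8750 cells/well, 42.6 ng DNA/well.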

Chain of human RORγt ligand binding domain (RORγt LBD) (P51449 other isoform, or with tags, fused parts or gaps): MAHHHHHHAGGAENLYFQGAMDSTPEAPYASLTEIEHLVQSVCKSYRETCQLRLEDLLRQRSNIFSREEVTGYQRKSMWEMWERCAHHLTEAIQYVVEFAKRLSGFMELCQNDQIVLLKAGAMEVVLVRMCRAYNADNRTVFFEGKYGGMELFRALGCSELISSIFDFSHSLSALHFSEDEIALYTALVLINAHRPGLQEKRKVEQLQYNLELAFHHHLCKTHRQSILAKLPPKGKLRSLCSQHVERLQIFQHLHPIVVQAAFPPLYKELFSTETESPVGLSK

Compound | Kd [1] [nM] | IC50 (full-length human RORγt) [nM] | inhibition at 6 µM (full-length human RORγt) [%] | inhibition at 3 µM (full-length human RORγt) [%] | inhibition at 2 µM (full-length human RORγt) [%]
CCc1nc(C(=O)NC[C@]2(O)CC[C@@H](S(C)(=O)=O)CC2)c(Cl)n1-c1ccc(CC(C)C)cc1OC (single isomer, unassigned) [Example 92, 5-Chloro-2-ethyl-N-(((1s,4S)-1-hydroxy-4-(methylsulfonyl)cyclohexyl)methyl)-1-((R*)-4-isobutyl-2-methoxyphenyl)-1H-imidazole-4-carboxamide] | 0.28 | 7 | 72 | – | –
CCc1nc(C(=O)NC[C@]2(O)CC[C@@H](S(C)(=O)=O)C[C@H]2O)c(Cl)n1-c1ncc(CC(C)(C)C(F)(F)F)cc1OC(F)F (stereo in doubt) [Example 60, 5-Chloro-1-(3-(difluoromethoxy)-5-(3,3,3-trifluoro-2,2-dimethylpropyl)pyridin-2-yl)-N-(((1R*,2R*,4R*)-1,2-dihydroxy-4-(methylsulfonyl)cyclohexyl)methyl)-2-ethyl-1H-imidazole-4-carboxamide] | 34 | 190 | – | 86 | –
CCc1nc(C(=O)NC[C@@]2(O)CC[C@H](S(C)(=O)=O)C[C@@H]2O)c(Cl)n1-c1ncc(CC(C)(C)C(F)(F)F)cc1OC(F)F (stereo in doubt) [Example 61, 5-Chloro-1-(3-(difluoromethoxy)-5-(3,3,3-trifluoro-2,2-dimethylpropyl)pyridin-2-yl)-N-(((1S*,2S*,4S*)-1,2-dihydroxy-4-(methylsulfonyl)cyclohexyl)methyl)-2-ethyl-1H-imidazole-4-carboxamide] | 46 | 110 | – | 90 | –
CCc1nc(C(=O)NC[C@H]2CC[C@H](S(C)(=O)=O)C[C@@H]2O)c(Cl)n1-c1ncc(CC(C(F)(F)F)C(F)(F)F)cc1OC(F)F (stereo in doubt) [Example 64, 5-Chloro-1-(3-(difluoromethoxy)-5-(3,3,3-trifluoro-2-(trifluoromethyl)propyl)pyridin-2-yl)-2-ethyl-N-(((1R*,2S*,4S*)-2-hydroxy-4-(methylsulfonyl)cyclohexyl)methyl)-H-imidazole-4-carboxamide] | 35 | 210 | – | 101 | –
CCc1nc(C(=O)NC[C@@H]2CC[C@@H](S(C)(=O)=O)C[C@H]2O)c(Cl)n1-c1ncc(CC(C(F)(F)F)C(F)(F)F)cc1OC(F)F (stereo in doubt) [Example 65, 5-Chloro-1-(3-(difluoromethoxy)-5-(3,3,3-trifluoro-2-(trifluoromethyl)propyl)pyridin-2-yl)-2-ethyl-N-(((1S*,2R*,4R*)-2-hydroxy-4-(methylsulfonyl)cyclohexyl)methyl)-1H-imidazole-4-carboxamide] | 28 | 110 | – | 105 | –
CCc1nc(C(=O)NC[C@@]2(O)CC[C@H](S(C)(=O)=O)C[C@@H]2O)c(Cl)n1-c1ncc(CC(C(F)(F)F)C(F)(F)F)cc1OC(F)F (stereo in doubt) [Example 66, 5-Chloro-1-(3-(difluoromethoxy)-5-(3,3,3-trifluoro-2-(trifluoromethyl)propyl)pyridin-2-yl)-N-(((1S*,2S*,4S*)-1,2-dihydroxy-4-(methylsulfonyl)cyclohexyl)methyl)-2-ethyl-1H-imidazole-4-carboxamide] | 73 | 790 | – | 70 | –
CCc1nc(C(=O)NC[C@]2(O)CC[C@@H](S(C)(=O)=O)C[C@H]2O)c(Cl)n1-c1ncc(CC(C(F)(F)F)C(F)(F)F)cc1OC(F)F (stereo in doubt) [Example 67, 5-Chloro-1-(3-(difluoromethoxy)-5-(3,3,3-trifluoro-2-(trifluoromethyl)propyl)pyridin-2-yl)-N-(((1R*,2R*,4R*)-1,2-dihydroxy-4-(methylsulfonyl)cyclohexyl)methyl)-2-ethyl-1H-imidazole-4-carboxamide] | 53 | 170 | – | 103 | –
CCc1nc(C(=O)NC[C@]2(O)CC[C@@H](S(C)(=O)=O)CC2)c(C#N)n1-c1ccc(CC(C)C(F)(F)F)cc1OC (stereo partly drawn) [Example 1, 5-Cyano-2-ethyl-N-(((1s,4s)-1-hydroxy-4-(methylsulfonyl)cyclohexyl)methyl)-1-(2-methoxy-4-(3,3,3-trifluoro-2-methylpropyl)phenyl)-1H-imidazole-4-carboxamide] | 4.6 | 40 | – | – | 103
CCc1nc(C(=O)NC[C@H]2CC[C@@H](S(C)(=O)=O)CC2)c(Cl)n1-c1ccc(N[C@H](C)C(F)(F)F)cc1OC [Example 4, 5-Chloro-2-ethyl-1-(2-methoxy-4-(((R)-1,1,1-trifluoropropan-2-yl)amino)phenyl)-N-(((1s,4S)-4-(methylsulfonyl)cyclohexyl)methyl)-1H-imidazole-4-carboxamide] | 470 | 350 | – | – | 87
COc1cc(N[C@H](C)C(F)(F)F)ccc1-n1c(CC(C)C)nc(C(=O)NC[C@H]2CC[C@H](S(C)(=O)=O)CC2)c1Cl [Example 9, 5-Chloro-2-isobutyl-1-(2-methoxy-4-(((R)-1,1,1-trifluoropropan-2-yl)amino)phenyl)-N-(((1r,4R)-4-(methylsulfonyl)cyclohexyl)methyl)-1H-imidazole-4-carboxamide] | 2.6 | 35 | 101 | – | –
COc1cc(N[C@H](C)C(F)(F)F)ccc1-n1c(C(C)(C)C)nc(C(=O)NC[C@H]2CC[C@H](S(C)(=O)=O)CC2)c1Cl [Example 10, 2-(tert-Butyl)-5-chloro-1-(2-methoxy-4-(((R)-1,1,1-trifluoropropan-2-yl)amino)phenyl)-N-(((1r,4R)-4-(methylsulfonyl)cyclohexyl)methyl)-1H-imidazole-4-carboxamide] | 6.1 | 57 | – | – | 104
CCCc1nc(C(=O)NC[C@H]2CC[C@H](S(C)(=O)=O)CC2)c(Cl)n1-c1ccc(N[C@H](C)C(F)(F)F)cc1OC [Example 11, 5-Chloro-1-(2-methoxy-4-(((R)-1,1,1-trifluoropropan-2-yl)amino)phenyl)-N-(((1r,4R)-4-(methylsulfonyl)cyclohexyl)methyl)-2-propyl-1H-imidazole-4-carboxamide] | 1 | 39 | 102 | – | –
CCc1nc(C(=O)NC[C@H]2CC[C@H](S(C)(=O)=O)CC2)c(F)n1-c1ccc(CCC(F)(F)F)cc1OC [Example 13, 2-Ethyl-5-fluoro-1-(2-methoxy-4-(3,3,3-trifluoropropyl)phenyl)-N-(((1r,4r)-4-(methylsulfonyl)cyclohexyl)methyl)-1H-imidazole-4-carboxamide] | 25 | 140 | 95 | – | –
CCc1nc(C(=O)NC[C@]2(O)CC[C@@H](S(C)(=O)=O)CC2)c(F)n1-c1ccc(CCC(F)(F)F)cc1OC [Example 14, 2-Ethyl-5-fluoro-N-(((1s,4s)-1-hydroxy-4-(methylsulfonyl)cyclohexyl)methyl)-1-(2-methoxy-4-(3,3,3-trifluoropropyl)phenyl)-1H-imidazole-4-carboxamide] | 83 | 320 | 83 | – | –
CCc1nc(C(=O)NC[C@H]2CC[C@H](S(C)(=O)=O)CC2)c(F)n1-c1ccc(CC(C)C(F)(F)F)cc1OC (stereo partly drawn) [Example 15, 2-Ethyl-5-fluoro-1-(2-methoxy-4-(3,3,3-trifluoro-2-methylpropyl)phenyl)-N-(((1r,4r)-4-(methylsulfonyl)cyclohexyl)methyl)-1H-imidazole-4-carboxamide] | 3.9 | 55 | 103 | – | –
CCc1nc(C(=O)NC[C@H]2CC[C@H](S(C)(=O)=O)CC2)c(C#N)n1-c1ccc(CC(C)C(F)(F)F)cc1OC (stereo partly drawn) [Example 16, 5-Cyano-2-ethyl-1-(2-methoxy-4-(3,3,3-trifluoro-2-methylpropyl)phenyl)-N-(((1r,4r)-4-(methylsulfonyl)cyclohexyl)methyl)-1H-imidazole-4-carboxamide] | 1.3 | 16 | – | – | 103
CCc1nc(C(=O)NC[C@H]2CC[C@H](S(C)(=O)=O)CC2)c(C#N)n1-c1ccc(CCC(F)(F)F)cc1OC [Example 21, 5-Cyano-2-ethyl-1-(2-methoxy-4-(3,3,3-trifluoropropyl)phenyl)-N-(((1r,4r)-4-(methylsulfonyl)cyclohexyl)methyl)-1H-imidazole-4-carboxamide] | 14 | 94 | 101 | – | –
CCc1nc(C(=O)NC[C@]2(O)CC[C@@H](S(C)(=O)=O)CC2)c(Cl)n1-c1ccc(CCC(F)(F)F)cc1F [Example 23, 5-Chloro-2-ethyl-1-(2-fluoro-4-(3,3,3-trifluoropropyl)phenyl)-N-(((1s,4s)-1-hydroxy-4-(methylsulfonyl)cyclohexyl)methyl)-1H-imidazole-4-carboxamide] | 49 | 37 | 41 | – | –
CCc1nc(C(=O)NC[C@]2(O)CC[C@@H](S(C)(=O)=O)CC2)c(C#N)n1-c1ccc(CC(C)(C)C(F)(F)F)cc1OC(F)F [Example 24, 5-Cyano-1-(2-(difluoromethoxy)-4-(3,3,3-trifluoro-2,2-dimethylpropyl)phenyl)-2-ethyl-N-(((1s,4s)-1-hydroxy-4-(methylsulfonyl)cyclohexyl)methyl)-1H-imidazole-4-carboxamide] | 5.3 | 33 | 104 | – | –
